ChEMBL document CHEMBL1153047, “Discovery of N-[(1-aryl-1H-indazol-5-yl)methyl]amides derivatives as smoothened antagonists for inhibition of the hedgehog pathway” (Bioorg Med Chem Lett, 2009)

Target: Protein smoothened (Homo sapiens, UniProt Q99835)
Experiment: Inhibition of BODIPY-cyclopamine to Smo in human HEK293 Flag-Smo cells in presence of 2% FCS
Format: cell-based

Protein smoothened, sequence (Q99835 whole entry): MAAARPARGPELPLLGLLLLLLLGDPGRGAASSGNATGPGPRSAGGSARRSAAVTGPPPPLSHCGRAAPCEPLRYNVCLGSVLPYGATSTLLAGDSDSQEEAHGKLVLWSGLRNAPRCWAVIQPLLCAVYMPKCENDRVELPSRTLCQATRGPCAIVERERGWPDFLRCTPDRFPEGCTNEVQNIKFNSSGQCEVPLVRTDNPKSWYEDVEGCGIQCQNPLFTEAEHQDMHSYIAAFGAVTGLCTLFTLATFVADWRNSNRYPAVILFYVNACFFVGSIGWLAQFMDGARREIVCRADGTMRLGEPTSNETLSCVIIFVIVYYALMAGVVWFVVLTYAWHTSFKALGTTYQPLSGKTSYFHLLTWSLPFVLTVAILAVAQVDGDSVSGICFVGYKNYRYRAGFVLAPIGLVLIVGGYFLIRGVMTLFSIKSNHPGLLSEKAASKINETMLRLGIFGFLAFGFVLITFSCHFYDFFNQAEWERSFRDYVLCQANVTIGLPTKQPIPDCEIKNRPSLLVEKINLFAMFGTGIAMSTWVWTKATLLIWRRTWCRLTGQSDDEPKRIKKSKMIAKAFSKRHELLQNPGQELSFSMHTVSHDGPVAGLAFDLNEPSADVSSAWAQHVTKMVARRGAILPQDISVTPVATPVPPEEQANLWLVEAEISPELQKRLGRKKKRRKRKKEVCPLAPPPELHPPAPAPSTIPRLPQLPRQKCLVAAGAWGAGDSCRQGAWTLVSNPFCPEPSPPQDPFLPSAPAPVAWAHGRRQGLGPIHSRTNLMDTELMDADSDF

- IC50: > 10 µM
SMILES: O=C(Cc1ccccc1)NCc1ccc2c(cnn2-c2ccc(F)cc2)c1
